From patent US20250186378A1, “COMPOSITION INCLUDING VITAMIN B5 FOR IMPROVING RESPIRATORY HEALTH AND TREATING OR PREVENTING RESPIRATORY DISEASES, PHARMACEUTICAL COMPOSITION INCLUDING THE SAME FOR TREATING OR PREVENTING RESPIRATORY DISEASES, AND HEALTH FUNCTIONAL FOOD COMPOSITION INCLUDING THE SAME FOR IMPROVING RESPIRATORY …” (KT&G CORPORATION, priority 2023, published 2025)

Test system: total cells in bronchoalveolar lavage fluid
Test: Total cell count in bronchoalveolar lavage fluid, PM10D respiratory injury inflammation model
Format: in vivo, Balb/c mice
Conditions: vitamin B5 inhaled at 6 mg/kg or more, compared to the induced group and the oral administration group
Protocol: As an experimental animal, Balb/c mice (male, 6 weeks old, body weight of 15 to 17 g) were purchased from Coretech after receiving approval from the Institutional Animal Care and Use Committee (IACUC). After acclimatization for one week in the breeding room of the KT&G Bio-Efficacy Evaluation Center (temperature 23±2° C., humidity 50±10%, 12-hour light/dark cycle), the mice were used in the experiment. A PM10D mixture was prepared by diluting 3 mg/mL of particulate matter 10 (hereinafter PM10) [ERM-CZ120, Sigma Aldrich, St. Louis, MO, USA] and 0.6 mg/mL of diesel particulate matter (hereinafter DEP) [NIST-2975, Sigma Aldrich, St. Louis, MO, USA] in 1% Alum (Aluminium Hydroxide, 239186, Sigma Aldrich, USA). […] The exposure amount of aerosol (mg/L) was calculated as a dose (mg/kg) using a calculation formula based on a prior art (Alexander et al., Inhal Toxicol. 2008 October; 20(13):1179-89.). […] After centrifugation (1500 RPM/4° C./10 min) of the obtained bronchoalveolar lavage fluid, the supernatant was stored in an ultra-low temperature freezer (−70° C.) to measure cytokines, and cells isolated from the bronchoalveolar lavage fluid were treated with ammonium-chloride-potassium buffer (ACK, A10492-01, Gibco, NY, USA) solution for 10 minutes to lyse red blood cells, and then washed again with phosphate buffered saline, and the total cell count was measured using a hematocytometer. […]

SMILES: CC(C)(CO)[C@@H](O)C(=O)NCCC(=O)O [vitamin B5, pantothenic acid]
- Total cell count in bronchoalveolar lavage fluid (result in words): reduced
